Experimental data taken from patent US20150258047A1, “Therapeutic Compounds” (AKTHELIA PHARMACEUTICALS, priority 2011, published 2015).
Where “and” joins values, the source holds several entries; their conditions need not be identical. Equal values may be shown once. Read-outs that look alike come from different tables or passages of the source. Where no end group is shown, it is not given here.

Tests used:
CAP-18 [1] = assay: CAP-18 gene expression in tissue specimens of Shigella-infected rabbits; assay type: in vivo, rabbit; design: scale not given here; settings: treated Shigella-infected rabbits, n = 5, median
CAP-18 [2] = assay: CAP-18 immunoreactivity in epithelial lining of organs (immunostaining, ACIA score); assay type: in vivo, rabbit; settings: for CAP-18 peptide in the mucosal epithelia: Shigella infected rabbits, lung, trachea, rectum and colon; for CAP-18 in the organs of healthy rabbits: oral (FIG. 1B); for CAP-18 (protein) expression: oral, shigellosis infected rabbit, rectum, distal colon, kidney, lung and trachea relative to untreated infected rabbits (FIG. 1A)
Description: FIG. 1. CAP-18 immunoreactivity in the epithelial lining of different organs in (A) Healthy rabbits, Shigella-infected rabbits and infected rabbits treated with NaB, TBG or PBA (B) healthy rabbits treated with NaB, TBG or PBA. Quantification of immunoreactive area relative to the total cell area of the tissue section was done by a computerized image analysis technique, and the results are expressed as ACIA score, i.e., the total positively stained area×total mean intensity (1-256 levels/per pixel) of the positive area divided by total cell area. One-way ANOVA was used in comparing data between healthy and infected/infected treated rabbits, between infected and infected treated rabbits, and between healthy and healthy-treated rabbits. The differences were significant when P<0.05; ‡ significant when comparing with healthy, * significant when comparing with infected.

Shigella [3] = assay: Shigellosis rabbit model, clinical illness and recovery; assay type: in vivo; settings: for clinical illness: Shigella infected rabbits
Method: (§1) Anti-Shigella activity in stool extracts from PBA, TBG and NaB-treated rabbits was higher compared to infected or healthy rabbits.
(§2) In a shigellosis model a 0.14 mmol/dose lead to 2 out of 3 rabbits recovering from shigellosis. Assuming a blood volume of 121 ml in the 2 kg rabbit the maximum concentration of NaB in the blood after IV administration would have been 1.2 mM.

Shigella [4] = assay: Anti-Shigella activity in stool extracts of treated rabbits; assay type: in vivo, rabbit; settings: compared to infected or healthy rabbits
Description: as §1

[5] = Butyrate concentration in rabbit serum after oral NaB; assay type: in vivo; settings: oral dosing of 15.6 mg to each rabbit, read-out: maximum concentration of butyrate in the blood (Cmax)
Method: FIG. 2. Butyrate concentration in healthy rabbit serum after oral treatment with NaB. Serum was collected from healthy rabbits at different time points after oral treatment with a single 0.14 mmol dose of NaB (15.6 mg). Four analyses (duplicate analyses of two samples) of serum from a NaB treated rabbit are shown, where the concentrations are calculated from two separate standard curves (one for each duplicate). NaB: Sodium butyrate.
The maximum concentration of butyrate in the blood is about 8 μM (Cmax) after oral dosing of 15.6 mg of butyrate to each rabbit.

[6] = Maximum concentration of NaB in blood after IV administration (assumed blood volume); assay type: in vivo; settings: 0.14 mmol/dose; assuming blood volume of 121 ml in the 2 kg rabbit
Method: as §2

[7] = test system: Shigella dysenteriae type 1 strain; settings: cited from earlier work
Shigella flexneri strain = settings: cited from earlier work
[8] = test system: Pseudomonas aeruginosa (strain PA01); assay: Visual inspection of VA10 cell cultures infected with Pseudomonas aeruginosa; assay type: cell-based; settings: VA10 cells induced 48 h with 20 nM vitamin D, 4 mM PBA or both; 24 hrs after infection; control wells dense culture of bacteria
Method: FIG. 7. Visual assessment of survival of VA10 cells in the presence of low infectivity Pseudomonas aeruginosa 0-1 bacteria (PAO1). After cultivating for 6 days the cells were stimulated for 48 h with 4-PBA, VitD, and 4-PBA+VitD. Subsequently the cells were stimulated for 24 h with 10 MOI PAO1 and inspected under the microscope.
VA10 cells were grown in BEGM medium (Bronchial Epithelial Growth Medium). VA10 cells were induced by adding PBA and/or vitamin D to the medium. Untreated control was included. After 48 h induction the culture was infected with low dose of Pseudomonas aeruginosa (strain PA01) along with freeze-thaw-treated bacteria. After 24 hrs of cultivation the culture wells were visually inspected. Dense culture of bacteria was found in control wells, but the wells of cells that had been induced with 20 nM vitamin D, 4 mM PBA or combination of 20 nM vitamin D and 4 mM PBA contained clear medium (FIG. 7).

DEFB-1 = DEFB-1 mRNA expression in VA10 cells by rtPCR; assay type: cell-based, human; settings: first 4-PBA, subsequently low-dose inactivated Pseudomonas bacteria
Method: FIG. 9. DEFB-1 expression in VA10 cells after 48 h stimulation with 4 mM 4-PBA, 20 nM VitD, and […]+20 nM VitD and subsequent 24 h stimulation with low infectivity freeze-thawed PAO1 suspension (PAO1 has been frozen in DMEM at −25° C. for a week. The majority of bacteria have been inactivated.)
In addition to the visual inspection the degree of induction of CAMP mRNA, that codes for LL-37, and DEFB-1, that codes for […], was determined by rtPCR.

[9] = after the administration of a 5 g dose; cited from earlier work
[10] = test system: E. coli strain E2348/69 (EPEC); assay type: cell-based; settings: strain E2348/69 (EPEC, 0.90 μM)
Method: To assess bactericidal activity of synthetic CAP-18 and PBA, an in vitro killing experiment was carried out with E. coli strain E2348/69 (EPEC). […] Note that dosing in Phase II TB study is 1 g daily with 5000 IU vitamin D.

[11] = LP (lamina propria) distal colon
[12] = SE (surface epithelium) distal colon

Row | Molecule | CAP-18 gene expression (CAP-18 [1]; Kidney) | CAP-18 gene expression (CAP-18 [1]; [11]) | CAP-18 gene expression (CAP-18 [1]; LP (lamina propria) rectum) | CAP-18 gene expression (CAP-18 [1]; Lungs) | CAP-18 gene expression (CAP-18 [1]; [12]) | CAP-18 gene expression (CAP-18 [1]; SE (surface epithelium) rectum) | CAP-18 gene expression (CAP-18 [1]; Trachea) | CAP-18 gene expression (CAP-18 [1]; U. tract) | CAP-18 peptide in the mucosal epithelia (CAP-18 [2]) | CAP-18 in the organs of healthy rabbits (CAP-18 [2]) | CAP-18 (protein) expression (CAP-18 [2]) | clinical illness (Shigella [3]) | Anti-Shigella activity in stool extracts (Shigella [4]) | visual inspection of culture wells [8] | also measured
1 | CC[C@H](C)[C@H](NC(=O)[C@H](CCCCN)NC(=O)[C@H](CCC(=O)O)NC(=O)[C@H](CCCCN)NC(=O)[C@H](CO)NC(=O)[C@H](CCCCN)NC(=O)[C@H](CCCNC(=N)N)NC(=O)[C@H](Cc1ccccc1)NC(=O)[C@H](Cc1ccccc1)NC(=O)[C@H](CC(=O)O)NC(=O)CNC(=O)[C@H](CC(C)C)NC(=O)[C@@H](N)CC(C)C)C(=O)NCC(=O)N[C@@H](CCCCN)C(=O)N[C@@H](CCC(=O)O)C(=O)N[C@@H](Cc1ccccc1)C(=O)N[C@@H](CCCCN)C(=O)N[C@@H](CCCNC(=N)N)C(=O)N[C@H](C(=O)N[C@H](C(=O)N[C@@H](CCC(N)=O)C(=O)N[C@@H](CCCNC(=N)N)C(=O)N[C@H](C(=O)N[C@@H](CCCCN)C(=O)N[C@@H](CC(=O)O)C(=O)N[C@@H](Cc1ccccc1)C(=O)N[C@@H](CC(C)C)C(=O)N[C@@H](CCCNC(=N)N)C(=O)N[C@@H](CC(N)=O)C(=O)N[C@@H](CC(C)C)C(=O)N[C@H](C(=O)N1CCC[C@H]1C(=O)N[C@@H](CCCNC(=N)N)C(=O)N[C@H](C(=O)N[C@@H](CCC(=O)O)C(=O)N[C@@H](CO)C(=O)O)[C@@H](C)O)C(C)C)[C@@H](C)CC)C(C)C)[C@@H](C)CC [LL-37] |  |  |  |  |  |  |  |  |  |  |  |  |  |  | Zone diameter (Haemophilus influenzae; 50 uM): 0 mm; Zone diameter (Haemophilus influenzae; 100 uM): 7.75 mm; Zone diameter (Haemophilus influenzae; 300 uM): 13.3 mm; Zone diameter (Moraxella catarrhalis; 10 uM): 5.4 mm; Zone diameter (Moraxella catarrhalis; 25 uM): 6.3 mm; Zone diameter (Moraxella catarrhalis; 50 uM): 7.45 mm; Zone diameter (Moraxella catarrhalis; 100 uM): 8.9 mm
2 | CCCC(=O)O [NaB, sodium butyrate] | 17.4 | 0.55 | 0.1 | 12.6 | 5.0 | 0.3 | 0.71 | 0.19 | up-regulation | do not cause increase | systemic stimulation | reduced clinical illness | higher |  | CAP-18 level (CAP-18 [2]; colonic SE, intravenous injection into infected rabbits): 5.6±1.8 ACIA score; CAP-18 level (CAP-18 [2]; colonic SE, orally treated infected rabbits): 7.4±0.5 ACIA score; CAP-18 level (CAP-18 [2]; rectal SE, intravenous injection into infected rabbits): 6.5±1.8 ACIA score; CAP-18 level (CAP-18 [2]; rectal SE, orally treated infected rabbits): 8.13±1 ACIA score; rabbits recovering from shigellosis (Shigella [3]; 0.14 mmol/dose, intravenous): 2 out of 3; Cmax [5]: ~8 µM; maximum concentration in the blood after IV administration [6]: 1.2 mM; concentration for maximum killing [7]: 400 mM and 44 mg/ml; concentration for maximum killing (Shigella flexneri strain): 400 mM and 44 mg/ml
3 | O=C(O)CCCc1ccccc1 [PBA, sodium 4-phenylbutyrate, reference compound] | 3.9 | 0.53 | 0.41 | 5.3 | 2.4 | 0.18 | 1.1 | 0.13 | up-regulation | do not cause increase | systemic stimulation | reduced clinical illness | higher | clear medium | DEFB-1 expression (DEFB-1): up to six-fold; Cmax [9]: 1200 µM
4 | CCCC(=O)OCC(COC(=O)CCC)OC(=O)CCC [TBG, glyceryl tributyrate] | 2.7 | 0.43 | 0.07 | 6.4 | 2.8 | 0.4 | 1.11 | 0.25 | up-regulation |  | systemic stimulation | reduced clinical illness | higher |  | CAP-18 peptide level in the kidney (CAP-18 [2]; non-infected rabbits (FIG. 1B)): increased levels
5 | GLRKRLRKFRNKIKEKLKKIGQKIQGLLPKLAPRTDY [CAP-18] |  |  |  |  |  |  |  |  |  |  |  |  |  |  | killing of EPEC [10]: 97-99%
6 | vitamin D |  |  |  |  |  |  |  |  |  |  |  |  |  | clear medium | 
